Experimental data published in patent US9326972B2, “Use of phenylmethimazoles, methimazole derivatives, and tautomeric cyclic thiones for the treatment of autoimmune/inflammatory diseases associated with toll-like receptor overexpression” (Ohio University, priority 2004, dated 2016).

What was measured:
NOD mice = test: Glucosuria in NOD mice, infection/Coxsackie virus-induced Type 1 diabetes; assay type: in vivo, mouse
Source text: Mice were housed in germ free facilities, termed clean, or normal facilities where viral infections can occur, termed dirty. Animals showing urine Tes-Tape positivity greater than 1+ are considered positive and to have diabetes (L. S. Wicker, et al., Diabetes, 35:855-60 (1986)). In experiments in a “dirty” animal facility, C10 was effective in retarding the development of glucosuria in the NOD mice. When this was repeated in a “clean” or germ free laboratory, no effect of C10 was noted. What was noted, however, was the onset of glucosuria in the mice was much earlier in the animals maintained in “dirty” as opposed to “clean” mouse facilities. Further, in experiments with 8 mice in each group, even in a dirty facility, the injection of CVB4 Edwards Coxsackie virus advanced the expression of glucosuria (last two rows).
Induction of Diabetes and treatment with drugs. NOD/Lt female mice were from the Jackson Laboratory (Bar Harbor, Me.). All experiments were carried out in accordance with “Guide for Care and Use of Laboratory Animals” (NIH Publication No. 85-23, revised 1985). Mice were injected with 200 μl PBS or 5×10^5 PFU of the CVB4 Edwards Coxsackie virus strain ip (D. V. Serreze, et al., J Virol, 79:1045-52 (2005)). Mice were treated daily with i/p injections of C-10, MMI, 2.5% DMSO(C10 carrier control), or PBS (MMI carrier control). After injections, blood and urinary glucose levels were monitored weekly using Chemstrips (Boehringer Mannheim). Consecutive values of >240 mg/dl on two occasions >24 h apart were considered diagnostic of diabetes. Experiments used 8 mice/group in up to 3 experiments.

IRF-1 = test: LPS-increased IRF-1 mRNA and IRF-1 binding to MxISRE in RAW 264.7 macrophages (Northern, EMSA); assay type: cell-based, mouse
Source text: IRF-1 is a transcription factor which is induced upon LPS stimulation of macrophages through a Stat1 dependent mechanism (Y. Ohmori, et al., J Leukoc Biol, 69:598-604 (2001)). Therefore IRF-1 provides another example of a response that may be affected by an inhibitor of LPS induced IFN-β signaling. Unlike other molecules studied thus far, IRF-1 acts as a transcription factor to directly bind to DNA to enhance transcription of other genes such as iNOS (R. Kamijo, et al., Science, 263:1612-5, (1994)). In macrophages treated with LPS, IRF-1 is required for the transcriptional control of the iNOS gene (R. Kamijo, et al., Science, 263:1612-5 (1994)). […] Typical LPS induction for each time point is observed in each LPS plus DMSO lane (FIG. 14A, lanes 2, 5, 8). […] The decrease by C10 is much greater than by MMI (FIG. 14A, lanes 6 and 9 vs 7 and 10, respectively). […] Specificity was observed upon incubation of extracts with unlabeled […] probe (FIG. 14B, lane 9). […] ID NO:23) and [NT] (469 bp) (SEQ ID NO:24); […] ID NO:25) and [NT] […] ID NO:27) and [NT] […] ID NO:29) and [NT] (586 bp) (SEQ ID NO:30). […] EMSA in RAW 264.7 cells: Nuclear extracts were prepared using NE-PER® extraction reagents (Pierce Chemical Co.; Rockford, Ill.) in the presence of a protease inhibitor cocktail (PMSF, Leupeptin, Pepstatin-A). Oligonucleotide sense strand probe sequences were as follows […] probe: [NT] […]

horses = test: LPS-induced endotoxemia and endotoxic shock in horses; assay type: in vivo, horse; conditions: for Dyspnea and Tachypnea / Lung Auscultation / Toxemia and Vascular Congestion / Toxemia, Vascular Congestion, Cyanosis: C10 2 mg/kg iv pretreatment
[1] = + CVB4 Edwards Coxsackie virus, Dirty facility
[2] = LPS 10 μg/kg, C10 (1 mg/kg) iv pretreatment, time 0.15-6 hours

Cn1c(-c2ccccc2)cnc1S [Compound C10, 5-Phenylmethimazole]
glucosuria and death in Coxsackie's virus induced NOD mouse model of diabetes (NOD mice): effective in retarding glucosuria and death | Glucosuria % of Total, Week 1 (NOD mice; [1]): 0 % of Total | Glucosuria % of Total, Week 4 (NOD mice; [1]): 0 % of Total | Glucosuria % of Total, Week 8 (NOD mice; [1]): 20 % of Total | Glucosuria % of Total, Week 12 (NOD mice; [1]): 30 % of Total | Glucosuria % of Total, Week 1 (NOD mice; Clean facility): 0 % of Total | Glucosuria % of Total, Week 4 (NOD mice; Clean facility): 0 % of Total | Glucosuria % of Total, Week 8 (NOD mice; Clean facility): 0 % of Total | Glucosuria % of Total, Week 12 (NOD mice; Clean facility): 20 % of Total | Glucosuria % of Total, Week 16 (NOD mice; Clean facility): 40 % of Total | Glucosuria % of Total, Week 20 (NOD mice; Clean facility): 100 % of Total | Glucosuria % of Total, Week 1 (NOD mice; Dirty facility): 0 % of Total | Glucosuria % of Total, Week 4 (NOD mice; Dirty facility): 0 % of Total | Glucosuria % of Total, Week 8 (NOD mice; Dirty facility): 0 % of Total | Glucosuria % of Total, Week 12 (NOD mice; Dirty facility): 0 % of Total | LPS induced IRF-1 binding to the MxISRE element (EMSA) (IRF-1; RAW 264.7, LPS 1 μg/mL 2 hours): dose dependent reduction | LPS-increased IRF-1 mRNA (IRF-1; RAW 264.7, LPS 1 μg/mL, 2 and 3 hours, Northern): strong reduction | symptoms of endotoxemia (hypotension, hypoxemia, collapse, cardiac anoxia, acute renal failure) (horses; LPS): clearly blocked | Dyspnea and Tachypnea (horses; LPS 10 μg/kg, 1 week): Normal | Lung Auscultation (horses; LPS 10 μg/kg, 1 week): Normal | Toxemia and Vascular Congestion (horses; LPS 10 μg/kg, 1 week): Normal | Toxemia, Vascular Congestion, Cyanosis (horses; LPS 10 μg/kg, 1 week): Normal | Dyspnea and Tachypnea (horses; LPS 10 μg/kg, time 0.00 hours): Normal | Lung Auscultation (horses; LPS 10 μg/kg, time 0.00 hours): Normal | Toxemia and Vascular Congestion (horses; LPS 10 μg/kg, time 0.00 hours): Normal | Toxemia, Vascular Congestion, Cyanosis (horses; LPS 10 μg/kg, time 0.00 hours): Normal | Dyspnea and Tachypnea (horses; LPS 10 μg/kg, time 0.15 hours): Normal | Toxemia, Vascular Congestion, Cyanosis (horses; LPS 10 μg/kg, time 0.15 hours): Normal | Dyspnea and Tachypnea (horses; LPS 10 μg/kg, time 0.3 hours): Normal | Lung Auscultation (horses; LPS 10 μg/kg, time 0.3 hours): Normal | Toxemia and Vascular Congestion (horses; LPS 10 μg/kg, time 0.3 hours): Weak Congestion | Toxemia, Vascular Congestion, Cyanosis (horses; LPS 10 μg/kg, time 0.3 hours): Weak Congestion | Dyspnea and Tachypnea (horses; LPS 10 μg/kg, time 3 hours): Normal | Lung Auscultation (horses; LPS 10 μg/kg, time 3 hours): Normal | Toxemia and Vascular Congestion (horses; LPS 10 μg/kg, time 3 hours): Weak Congestion | Toxemia, Vascular Congestion, Cyanosis (horses; LPS 10 μg/kg, time 3 hours): Weak Congestion | Dyspnea and Tachypnea (horses; LPS 10 μg/kg, time 24 hours): Normal | Lung Auscultation (horses; LPS 10 μg/kg, time 24 hours): Normal | Toxemia and Vascular Congestion (horses; LPS 10 μg/kg, time 24 hours): Normal | Toxemia, Vascular Congestion, Cyanosis (horses; LPS 10 μg/kg, time 24 hours): Normal | abdominal pain, diarrhea, collapse or prostration (horses; LPS 10 μg/kg, C10 (1 mg/kg) iv pretreatment, 1 week): normal | abdominal pain, diarrhea, collapse or prostration (horses; LPS 10 μg/kg, C10 (1 mg/kg) iv pretreatment, time 0 hours): normal | abdominal pain, diarrhea, collapse or prostration (horses; [2]): Normal | number of stools (horses; [2]): 1 stool | abdominal pain, diarrhea, collapse or prostration (horses; LPS 10 μg/kg, C10 (1 mg/kg) iv pretreatment, time 24 hours): normal
